The text below walks through data of patent US4357425A, “Process for producing L-amino acid oxidase” (Toyo Jozo Company, Ltd., priority 1980, dated 1982).

Where “and” joins values, the source holds several entries; their conditions need not be identical. Equal values may be shown once.

The first experiment has as its system L-amino acid oxidase. The experiment in a line: Substrate specificity of L-amino acid oxidase (enzyme activity measurement, H2O2 colorimetry).
Settings: not given
Format: biochemical, Colletotrichum sp. M5073. The protocol: (§1) 0.9 ml of a reaction solution of the following composition is placed in a small test tube and warmed to 37° C.
(§2) 0.1 ml of a liquid containing L-amino acid oxidase is added thereto and reaction continued for exactly for 10 minutes at 37° C. The reaction was terminated by adding 2.0 ml of ethanol. Then, the amount of hydrogen peroxide formed is colorimetrically determined from absorbance measured at 480 nm. The enzymatic activity is determined from the amount of the hydrogen peroxide formed with the following equation: […]
(§3) The amount of the enzyme which produces 1μ mole of hydrogen peroxide at 37° C. in one minute is defined as one unit (1 U).
Enzymatic activities of the enzyme on various substrates as shown in the Table 1 below are measured with the same procedures as the measurement of the enzyme activity by using 5 m mole of the substrate and 0.007 U of the enzyme.
For the molecule `CC(C)C[C@H](N)C(=O)O` [L-Leucine], the “Enzyme acts upon substrate” value is “acts upon”.

The same experiment, now with this note: 5 m mole of the substrate, 0.007 U of the enzyme; 37° C., 10 minutes; L-Leucine = 100.
Take `N[C@@H](Cc1ccccc1)C(=O)O` [L-Phenylalanine]: the “Relative activity (%) on substrate” value is 70.0%.

Consider `CSCC[C@H](N)C(=O)O` [L-Methionine], for which the “Relative activity (%) on substrate” value was 93.6%.

Turning to `N[C@@H](CC(=O)O)C(=O)O` [L-Aspartic acid], the “Relative activity (%) on substrate” value amounted to 0.0%.

With `NCC(=O)O` [L-Glycin], the “Relative activity (%) on substrate” value worked out at 0.0%.

Regarding `C[C@@H](N)C(=O)O` [D-Alanine], the “Relative activity (%) on substrate” value was found to be 0.0%.

In the case of `N[C@@H](Cc1c[nH]cn1)C(=O)O` [L-Histidine], the “Relative activity (%) on substrate” value was 11.8%.

In the case of `C[C@H](N)C(=O)O` [L-Alanine], the “Relative activity (%) on substrate” value is listed as 12.3%.

For the molecule `N[C@@H](CS)C(=O)O` [L-Cysteine], the “Relative activity (%) on substrate” value was 6.4% and 0.0%.

`N[C@@H](CO)C(=O)O` [L-Serine]: the “Relative activity (%) on substrate” value was found to be 0.0%.

For `NCCCC[C@H](N)C(=O)O` [L-Lysine], the “Relative activity (%) on substrate” value was found to be 29.6%.

Regarding `CC[C@H](C)[C@H](N)C(=O)O` [L-Isoleucine], the “Relative activity (%) on substrate” value is given as 29.1%.

For `N[C@@H](CCC(=O)O)C(=O)O` [L-Glutamic acid], the “Relative activity (%) on substrate” value amounted to 0.0%.

Turning to `CC[C@H](C)[C@H](N)C(=O)O` (racemic) [DL-Isoleucine], the “Relative activity (%) on substrate” value is recorded as 15.3%.

Take `NC(Cc1c[nH]c2ccccc12)C(=O)O` (racemic) [DL-Tryptophan]: the “Relative activity (%) on substrate” value is reported as 27.1%.

As for `CC(C)C[C@H](N)C(=O)O` [L-Leucine], the “Relative activity (%) on substrate” value is given as 100.0%.

With `N[C@@H](Cc1ccc(O)cc1)C(=O)O` [L-Tyrosine], the “Relative activity (%) on substrate” value amounted to 22.2%.

With `N=C(N)NCCC[C@H](N)C(=O)O` [L-Arginine], the “Relative activity (%) on substrate” value was 39.9%.

As for `N[C@H](Cc1ccccc1)C(=O)O` [D-Phenylalanine], the “Relative activity (%) on substrate” value is on record as 0.0%.

The subject of another experiment is L-amino acid oxidase. Description: Inhibition and activation of L-amino acid oxidase by metallic ions or other additives. The following applies: 1 mM additive, 0.01 U of the enzyme; None = 100. Type of experiment: biochemical, Colletotrichum sp. M5073. The protocol: as §1, §2, §3
The enzymatic activities of the enzyme are measured with the same procedures as the measurement of the enzyme activity using 0.01 U of the enzyme, and adding 1 mM of various metallic ions or other additives as shown in Table 2 below to the reaction solution. Cyano ion has a strong inhibiting effect on the enzyme and no ion is found to have an activating effect on the enzyme.
In the case of `[Cl-].[Li+]` [LiCl], the “Relative activity (%) with additive” value came to 97.5%.

Take `[Cl][Mn][Cl]` [MnCl2]: the “Relative activity (%) with additive” value is 97.1%.

Consider `[Ba+2].[Cl-].[Cl-]` [BaCl2], for which the “Relative activity (%) with additive” value amounted to 97.1%.

As to `O=C(O)CN(CCN(CC(=O)O)CC(=O)O)CC(=O)O` [EDTA], the “Relative activity (%) with additive” value stood at 100%.

For `[N-]=[N+]=[N-].[Na+]` [NaN3], the “Relative activity (%) with additive” value is reported as 100%.

Turning to `[Ca+2].[Cl-].[Cl-]` [CaCl2], the “Relative activity (%) with additive” value came to 95.4%.

As for `[Cl-].[Cl-].[Zn+2]` [ZnCl2], the “Relative activity (%) with additive” value is 94.2%.

In the case of `[Cl-].[Cl-].[Mg+2]` [MgCl2], the “Relative activity (%) with additive” value is on record as 99.2%.

In the case of `Cl.N` [NH4 Cl], the “Relative activity (%) with additive” value worked out at 97.1%.

As to `[F-].[Na+]` [NaF], the “Relative activity (%) with additive” value came out at 97.9%.

Turning to `[Cl-].[Cl-].[Co+2]` [CoCl2], the “Relative activity (%) with additive” value was found to be 50.6%.

The next experiment concerns L-amino acid oxidase. The experiment in a line: Km value of L-amino acid oxidase. Format: biochemical, Colletotrichum sp. M5073. The following applies: upon L-leucine.
The term Km denotes the substrate concentration at which the rate is half of its maximum. Regarding `CC(C)C[C@H](N)C(=O)O` [L-Leucine], the Km amounted to 170 µM.
